Test results: ChEMBL document CHEMBL5113418, “Discovery of precision targeting EZH2 degraders for triple-negative breast cancer” (Eur J Med Chem, 2022)

Columns and labels:
MDA-MB-231 = assay: Antiproliferative activity against human MDA-MB-231 cells assessed as cell growth inhibition incubated for 72 hrs by MTT assay; assay type: functional, cell-based; settings: MDA-MB-231, 72 h
MDA-MB-468 = assay: Antiproliferative activity against human MDA-MB-468 cells assessed as cell growth inhibition incubated for 72 hrs by MTT assay; assay type: functional, cell-based; settings: MDA-MB-468, 72 h

SMILES	IC50 (MDA-MB-231)	IC50 (MDA-MB-468)
Cc1cc(C)c(CNC(=O)c2cc(-c3ccc(N4CCN(C(=O)CCCCCn5cc(CCCCCC(=O)N[C@@H](C(=O)N6C[C@H](O)C[C@H]6C(=O)NCc6ccc(-c7scnc7C)cc6)C(C)(C)C)nn5)CC4)nc3)cc3c2cnn3C(C)C)c(=O)[nH]1	26.3 µM	14.5 µM
Cc1cc(C)c(CNC(=O)c2cc(-c3ccc(N4CCN(C(=O)CCCCn5cc(CCCCC(=O)N[C@@H](C(=O)N6C[C@H](O)C[C@H]6C(=O)NCc6ccc(-c7scnc7C)cc6)C(C)(C)C)nn5)CC4)nc3)cc3c2cnn3C(C)C)c(=O)[nH]1	> 40 µM	> 40 µM
Cc1cc(C)c(CNC(=O)c2cc(-c3ccc(N4CCN(C(=O)CCCCCCCC(=O)N[C@H](C(=O)N5C[C@H](O)C[C@H]5C(=O)NCc5ccc(-c6scnc6C)cc5)C(C)(C)C)CC4)nc3)cc3c2cnn3C(C)C)c(=O)[nH]1	5.15 µM	3.08 µM
Cc1cc(C)c(CNC(=O)c2cc(-c3ccc(N4CCNCC4)nc3)cc3c2cnn3C(C)C)c(=O)[nH]1	> 40 µM	> 40 µM
CCCc1cc(C)[nH]c(=O)c1CNC(=O)c1cc(-c2ccc(N3CCN(C(C)C)CC3)nc2)cc2c1cnn2C(C)C	14.7 µM	7.67 µM
Cc1cc(C)c(CNC(=O)c2cc(-c3ccc(N4CCN(CCCCCCc5cn(CCOCCOCCOCCOCCOCCNc6cccc7c6C(=O)N(C6CCC(=O)NC6=O)C7=O)nn5)CC4)nc3)cc3c2cnn3C(C)C)c(=O)[nH]1 (configuration not stated)	1.7 µM	1.14 µM
Cc1cc(C)c(CNC(=O)c2cc(-c3ccc(N4CCN(C(=O)Cn5cc(CCCC(=O)N[C@@H](C(=O)N6C[C@H](O)C[C@H]6C(=O)NCc6ccc(-c7scnc7C)cc6)C(C)(C)C)nn5)CC4)nc3)cc3c2cnn3C(C)C)c(=O)[nH]1	> 40 µM	> 40 µM
CC[C@H](C)n1cc(C)c2c(C(=O)NCc3c(C)cc(C)[nH]c3=O)cc(-c3ccc(N4CCN(C(=O)CCCCCCCCc5cn(CCOCCOCCOCCOCCOCCNc6cccc7c6C(=O)N(C6CCC(=O)NC6=O)C7=O)nn5)CC4)nc3)cc21 (some centres not stated)	11.2 µM	1.29 µM
Cc1cc(C)c(CNC(=O)c2cc(-c3ccc(N4CCN(C(=O)CCCc5cn(CCOCCOCCOCCOCCOCCNc6cccc7c6C(=O)N(C6CCC(=O)NC6=O)C7=O)nn5)CC4)nc3)cc3c2cnn3C(C)C)c(=O)[nH]1 (configuration not stated)	> 40 µM	33.6 µM
Cc1cc(C)c(CNC(=O)c2cc(-c3ccc(N4CCN(C(=O)Cn5cc(CCC(=O)N[C@@H](C(=O)N6C[C@H](O)C[C@H]6C(=O)NCc6ccc(-c7scnc7C)cc6)C(C)(C)C)nn5)CC4)nc3)cc3c2cnn3C(C)C)c(=O)[nH]1	> 40 µM	> 40 µM
CCN(c1cc(-c2ccc(N3CCN(C(=O)CCCCCCCCc4cn(CCOCCOCCOCCOCCOCCNc5cccc6c5C(=O)N(C5CCC(=O)NC5=O)C6=O)nn4)CC3)nc2)cc(C(=O)NCc2c(C)cc(C)[nH]c2=O)c1C)C1CCOCC1 (configuration not stated)	1.09 µM	0.7 µM
Cc1cc(C)c(CNC(=O)c2cc(-c3ccc(N4CCN(C(=O)CCCCCCCCc5cn(CCOCCOCCNc6cccc7c6C(=O)N(C6CCC(=O)NC6=O)C7=O)nn5)CC4)nc3)cc3c2cnn3C(C)C)c(=O)[nH]1 (configuration not stated)	> 40 µM	> 40 µM
Cc1cc(C)c(CNC(=O)c2cc(-c3ccc(N4CCN(C(=O)Cn5cc(CCCCC(=O)N[C@@H](C(=O)N6C[C@H](O)C[C@H]6C(=O)NCc6ccc(-c7scnc7C)cc6)C(C)(C)C)nn5)CC4)nc3)cc3c2cnn3C(C)C)c(=O)[nH]1	> 40 µM	> 40 µM
Cc1cc(C)c(CNC(=O)c2cc(-c3ccc(N4CCN(C(=O)CCCCCn5cc(CCCCC(=O)N[C@@H](C(=O)N6C[C@H](O)C[C@H]6C(=O)NCc6ccc(-c7scnc7C)cc6)C(C)(C)C)nn5)CC4)nc3)cc3c2cnn3C(C)C)c(=O)[nH]1	35.4 µM	23.2 µM
Cc1cc(C)c(CNC(=O)c2cc(-c3ccc(N4CCN(C(=O)CCc5cn(CCOCCOCCOCCOCCOCCNc6cccc7c6C(=O)N(C6CCC(=O)NC6=O)C7=O)nn5)CC4)nc3)cc3c2cnn3C(C)C)c(=O)[nH]1 (configuration not stated)	> 40 µM	> 40 µM
Cc1cc(C)c(CNC(=O)c2cc(-c3ccc(N4CCN(C(=O)CCCCc5cn(CCOCCOCCOCCOCCOCCNc6cccc7c6C(=O)N(C6CCC(=O)NC6=O)C7=O)nn5)CC4)nc3)cc3c2cnn3C(C)C)c(=O)[nH]1 (configuration not stated)	30.3 µM	22.3 µM
